In patent publication US20090170847A1, “Imidazopyridine Derivatives Inhibiting Protein Kinase Activity, Method for the Preparation Thereof and Pharmaceutical Composition Containing Same” (priority 2006, published 2009):

Columns and labels:
Format in all cases: biochemical
[1] = target: T1, CDK-2/cycline A (Homo sapiens, UniProt P24941); experiment: CDK-2 enzyme inhibition (histone H1, 32P-ATP)
T1 construct: purchased Upstate
Method: (§1) 0.33 mg/ml of MBP (Upstate), 100 μM of ATP and 0.25 μCi of ^32P-ATP were added to the buffer solution as substrates. 5 nM of recombinant Erk-1 (Upstate) was added the resulting mixture, and the mixture was reacted at 30° C. for 1 hour. The reaction was terminated by adding 5 μl of 5% phosphoric acid solution to 25 μl of the reaction mixture. 15 μl of the resulting solution was dropped on whatman p81 filter paper, which was then washed in 0.5% phosphoric acid solution for 10 mins. After repeating the washing 3 times, the filter paper was dried and cpm thereof was measured by a liquid scintillation counter (Packard, USA). Inhibitory capacities of the test compounds for the enzyme activity were assessed according to the same method as in GSK-3β analysis, and IC50 value was calculated.
The procedure of ERK-1 analysis was repeated to assess inhibitory capacities of the test compounds for the enzyme activity, except for using 2.5 μg of histone H1 (Upstate) and 100 nM of recombinant CDK-2/cycline A (Upstate).

[2] = target: human GSK-3β (Homo sapiens, UniProt P49841); experiment: GSK-3β enzyme inhibition (32P-ATP, phospho-CREB peptide, filter paper); conditions: 100 μM ATP, 30° C., 1 hour
Method: GSK-3β was prepared by a gene recombination method.
First, primers corresponding to 5′-end and 3′-end of polynucleotide encoding human GSK-3β were designed and synthesized from nucleotide sequence of human GSK-3β (GenBank Reg. No. L33801). Then, the primers were amplified by PCR (polymerase chain reaction) in which a human DNA sequence was employed as a template and treated with restriction enzyme BamH1/XhoI. The resulting gene fragments were inserted into the corresponding identical restriction sites of pGex vector (GE Healthcare Life Science) to prepare an expression vector for transformation of E. coli BL21 (DE3) strain (Invitrogen). The transformed E. coli strain was inoculated to LB medium (1% Bacto tryptone, 0.5% yeast extract, 1% sodium chloride) and cultured until the optical density of the bacterial cells was about 0.5 at 600 nm and 37° C. Then, IPTG (isopropyl-β-D-thiogalactoside) was added thereto to a final concentration to 0.5 mM at 18° C. 16 hours after IPTG addition, the cells were subjected to centrifugation at 10,000×g for 10 mins and cell precipitates were collected. The cell precipitates were suspended in a buffer solution (30 mM tris-HCl (pH 7.5), 100 mM NaCl, 5% glycerol, 2 mM DTT) and the cells were smashed in an ice bath using a Sonic Dismembrator (Fisher, USA). The resulting solution was centrifuged at 16,000 rpm for 30 mins.
The supernatant obtained above was introduced to a pre-equilibrated GST column (Pharmacia, USA) and eluted by 5 mM glutachione. The effuent was subjected to SDS-PAGE and GSK-3β protein was collected. GST protein was cutt using thrombin. The GSK-3β protein thus obtained was diluted with a buffer solution (20 mM HEPES (pH 7.5), 5% glycerol, 2 mM DTT) until the concentration of NaCl reached 50 mM. The diluted solution was introduced to Mono S column (Pharmacia, USA) equilibrated with the above buffer solution and eluted with a aqueous NaCl while changing the concentration from 0 to 1 M NaCl, and GSK-3β protein was collected by a electrophoresis. The purified protein was used in the analysis for the activity for enzyme activity.
The enzyme reaction was conducted in a buffer solution (50 mM of tris-HCl (pH 7.5), 10 mM of MgCl2, 1 mM of EGTA, 1 mM of EDTA and 1 mM of DTT). 100 μM of phosho-CREB peptide (NEB, USA), 100 μM of ATP and 1 μCi of ^32P-ATP were added to the buffer solution as substrates. And then 100 nM of recombinant GSK-3β was added thereto and the mixture was reacted at 30° C. for 1 hour. The reaction was terminated by the addition of 5 μl of 5% phosphoric acid solution to 25 μl of the reaction mixture. The resulting solution was subjected to centrifugation at 15,000 for 10 mins and 20 μl of the supernatant thus obtained was dropped on whatman p81 filter paper. The filter paper was washed in 0.5% phosphoric acid solution for 10 mins. After repeating the washing 3 times, the filter paper was dried and its cpm (counter per mins) was assessed.
The test solution prepared above by dissolving a test compound in DMSO was added to the reaction solution in an amount of less than 5% based on the total reaction solution to analyze the capacity for enzyme inhibitory activity.

[3] = target: T2, KDR (Homo sapiens, UniProt P35968); experiment: KDR enzyme inhibition (Biotin-polyE4Y, alphascreen); conditions: 0.1 μM ATP
T2 construct: purchased Upstate
Method: (§2) The test solution prepared above by dissolving a test compound in DMSO was added to the reaction solution in an amount of less than 5% based on the total reaction solution to analyze the capacity for enzyme inhibitory activity. The cpm value obtained when the test compounds was present relative to the cpm value in the absence of the test compound was represented by percentage, and IC50 (μM) was determined as the concentration of the test compound required to inhibit the enzyme activity by 50% relatively to the control solution.
The compounds prepared in the Examples were dissolved in dimethylsulfoxide (DMSO) at a concentration of 12.5 mM to prepare test solution, and enzyme reaction was conducted in a buffer solution containing 50 mM tris-HCl (pH 7.5), 5 mM MgCl2, 1 mM MnCl2, 0.01% tween-20 and 2 mM of DTT. 1 nM of Biotin-polyE4Y (Packard) and 0.1 μM of ATP were added to the buffer solution as substrates. 2 nM of recombinant KDR (Upstate) was added the resulting mixture and reaction was carried out at 30° C. for 1 hour. 10 μl of a diluted solution prepared by diluting alphascreen phosphotyrosine (T-Tyr-100, Packard) beads with a solution containing 6.25 mM of HEPES (pH 7.4), 250 mM of NaCl, 100 Mm EDTA, and 0.25% BSA was added to 15 μl of the KDR reaction solution. After a reaction at a room temperature for 1 hour, alphascreen signal was measured by a fusion a-FP (Packard). Inhibitory capacities of the test compounds for the enzyme activity were assessed according to the same method as in GSK-3β analysis, and IC50 value was calculated.

[4] = target: T3, JNK-1 (Homo sapiens, UniProt P45983); experiment: JNK-1 enzyme inhibition (GST-ATF2, 32P-ATP)
T3 construct: purchased Upstate

[5] = target: T4, ERK-1 (Homo sapiens, UniProt P27361); experiment: ERK-1 enzyme inhibition (MBP, 32P-ATP); conditions: ERK-1, 100 μM ATP
T4 construct: purchased Upstate
Method: as §2
as §1, with “The compounds prepared in the Examples were dissolved in dimethylsulfoxide (DMSO) at a concentration of 12.5 mM to prepare test compounds and enzyme reaction was conducted in a buffer solution containing 50 mM of tris-HCl (pH 7.5), 10 mM of MgCl2, 1 mM of EGTA, 1 mM of EDTA and 1 mM of DTT. 0.33” for “0.33”

[6] = target: T5, p38 Mitogen-activated protein kinase (MAPK) (Homo sapiens, UniProt Q16539); experiment: p38 MAPK enzyme inhibition (histone H1, 32P-ATP); conditions: p38 MAPK (recombinant p38a)
T5 construct: purchased Upstate
T5 sequence (Q16539 whole entry): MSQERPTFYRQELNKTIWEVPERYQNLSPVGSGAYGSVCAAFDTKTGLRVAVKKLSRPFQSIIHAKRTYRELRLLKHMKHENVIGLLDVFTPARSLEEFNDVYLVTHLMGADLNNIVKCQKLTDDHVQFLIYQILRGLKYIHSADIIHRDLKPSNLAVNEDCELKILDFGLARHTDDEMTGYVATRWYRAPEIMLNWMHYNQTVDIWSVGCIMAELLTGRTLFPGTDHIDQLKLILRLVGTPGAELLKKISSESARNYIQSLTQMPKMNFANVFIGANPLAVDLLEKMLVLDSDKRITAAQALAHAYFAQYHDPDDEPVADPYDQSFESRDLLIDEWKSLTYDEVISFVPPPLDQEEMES
Method: The procedure of ERK-1 analysis was repeated to assess inhibitory capacities of the test compounds for the enzyme activity, except for using 2.5 μg of histone H1 (Upstate) and 5 nM of recombinant p38a (Upstate).

Chain of human GSK-3β (P49841 whole entry): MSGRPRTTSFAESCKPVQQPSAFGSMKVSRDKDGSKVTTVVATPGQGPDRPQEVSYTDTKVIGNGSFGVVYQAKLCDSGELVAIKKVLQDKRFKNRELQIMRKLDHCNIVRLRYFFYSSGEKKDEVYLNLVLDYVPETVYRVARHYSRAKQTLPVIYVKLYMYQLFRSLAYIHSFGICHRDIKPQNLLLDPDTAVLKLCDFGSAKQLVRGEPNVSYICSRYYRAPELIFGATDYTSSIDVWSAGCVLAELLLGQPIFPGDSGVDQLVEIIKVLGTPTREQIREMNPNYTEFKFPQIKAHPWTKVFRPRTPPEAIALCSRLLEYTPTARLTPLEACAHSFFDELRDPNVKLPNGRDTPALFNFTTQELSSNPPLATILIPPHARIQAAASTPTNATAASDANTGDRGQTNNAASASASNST
T3 sequence (P45983 whole entry, species assumed): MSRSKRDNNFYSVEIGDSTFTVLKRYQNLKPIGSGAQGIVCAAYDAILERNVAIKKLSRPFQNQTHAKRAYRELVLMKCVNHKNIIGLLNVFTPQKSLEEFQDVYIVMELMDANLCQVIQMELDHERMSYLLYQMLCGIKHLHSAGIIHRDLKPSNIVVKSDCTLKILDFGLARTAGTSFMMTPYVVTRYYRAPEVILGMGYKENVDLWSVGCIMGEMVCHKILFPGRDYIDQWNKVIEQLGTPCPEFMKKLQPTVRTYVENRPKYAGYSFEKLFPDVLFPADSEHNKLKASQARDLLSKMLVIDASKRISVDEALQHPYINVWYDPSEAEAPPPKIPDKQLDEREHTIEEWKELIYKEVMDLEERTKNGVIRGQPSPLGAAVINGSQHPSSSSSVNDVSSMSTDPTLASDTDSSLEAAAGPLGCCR
T4 sequence (P27361 whole entry, species assumed): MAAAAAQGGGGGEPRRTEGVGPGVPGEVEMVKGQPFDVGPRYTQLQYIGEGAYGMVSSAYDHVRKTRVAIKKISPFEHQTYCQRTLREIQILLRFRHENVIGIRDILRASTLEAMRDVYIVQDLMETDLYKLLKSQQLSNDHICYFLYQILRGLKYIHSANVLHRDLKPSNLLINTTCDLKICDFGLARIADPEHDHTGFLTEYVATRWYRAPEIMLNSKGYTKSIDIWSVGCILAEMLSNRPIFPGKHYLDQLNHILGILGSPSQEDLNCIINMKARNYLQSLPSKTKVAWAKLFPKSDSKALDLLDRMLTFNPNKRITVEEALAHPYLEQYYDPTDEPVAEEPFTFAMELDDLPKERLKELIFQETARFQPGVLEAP
T2 sequence (P35968 20-1356, species assumed): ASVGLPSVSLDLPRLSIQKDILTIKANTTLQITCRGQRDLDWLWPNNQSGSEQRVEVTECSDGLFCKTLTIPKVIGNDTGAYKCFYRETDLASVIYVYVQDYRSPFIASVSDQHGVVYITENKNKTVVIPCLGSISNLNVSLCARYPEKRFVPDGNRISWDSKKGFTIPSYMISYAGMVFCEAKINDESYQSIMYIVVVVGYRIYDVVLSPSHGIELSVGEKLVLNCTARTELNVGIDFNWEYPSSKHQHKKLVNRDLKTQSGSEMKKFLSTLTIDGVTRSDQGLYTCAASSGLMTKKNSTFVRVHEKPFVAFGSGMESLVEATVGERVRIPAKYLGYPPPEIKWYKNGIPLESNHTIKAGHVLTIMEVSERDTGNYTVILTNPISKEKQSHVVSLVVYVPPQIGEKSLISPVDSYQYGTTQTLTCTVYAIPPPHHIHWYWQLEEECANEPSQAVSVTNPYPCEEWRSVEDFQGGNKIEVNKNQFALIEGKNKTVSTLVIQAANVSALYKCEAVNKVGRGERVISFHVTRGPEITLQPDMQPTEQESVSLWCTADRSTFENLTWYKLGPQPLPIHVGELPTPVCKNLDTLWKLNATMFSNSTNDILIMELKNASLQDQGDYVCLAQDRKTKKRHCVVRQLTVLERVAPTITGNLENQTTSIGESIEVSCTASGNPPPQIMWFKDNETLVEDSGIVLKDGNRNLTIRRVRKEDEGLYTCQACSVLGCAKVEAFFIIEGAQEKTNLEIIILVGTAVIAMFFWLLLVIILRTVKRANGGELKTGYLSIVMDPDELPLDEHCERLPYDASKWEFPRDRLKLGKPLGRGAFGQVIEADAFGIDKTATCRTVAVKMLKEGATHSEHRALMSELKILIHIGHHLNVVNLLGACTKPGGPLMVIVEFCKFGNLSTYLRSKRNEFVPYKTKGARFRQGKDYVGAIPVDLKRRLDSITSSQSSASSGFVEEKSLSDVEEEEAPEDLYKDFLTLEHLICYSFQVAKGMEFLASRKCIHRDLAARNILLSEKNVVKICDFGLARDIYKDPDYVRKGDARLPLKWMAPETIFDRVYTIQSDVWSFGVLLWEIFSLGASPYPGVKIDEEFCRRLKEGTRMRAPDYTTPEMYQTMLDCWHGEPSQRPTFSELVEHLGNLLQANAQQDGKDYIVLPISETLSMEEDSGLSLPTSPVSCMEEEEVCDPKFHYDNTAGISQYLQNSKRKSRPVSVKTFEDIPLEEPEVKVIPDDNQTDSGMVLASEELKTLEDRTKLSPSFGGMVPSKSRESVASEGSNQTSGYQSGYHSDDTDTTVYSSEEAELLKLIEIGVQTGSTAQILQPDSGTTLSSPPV

**Q.** Which IC50 [1] does the source give for `CCSc1ccncc1NC(=O)c1ccnc2[nH]c(-c3ccc(F)cc3)nc12` [Example 320, 2-(4-fluoro-phenyl)-3H-imidazo[4,5-b]pyridine-7-carboxylic acid(4-ethylsulfanyl-pyridin-3-yl)-amide] here?
**A.** 0.17 µM

**Q.** And the IC50 [2]?
**A.** 0.005 µM

**Q.** What about the IC50 [3] of the same compound?
**A.** 0.29 µM

**Q.** And the IC50 [4]?
**A.** 14.5 µM

**Q.** And the IC50 [5]?
**A.** 25.5 µM

**Q.** What about the IC50 [6] of the same compound?
**A.** 50 µM
